Source: patent US9128100B2, “Non-invasive diagnostic method for the evaluation of intestinal lactase deficiency (hypolactasia)” (Venter Pharma, S.L., priority 2012, dated 2015)
Where “and” joins values, the source holds several entries; their conditions need not be identical. Identical values can stand only once.

Assays:
Type in all cases: in vivo
intestinal lactase [1] = biological target: T1, intestinal lactase (Homo sapiens, UniProt P09848); test: 4-GX test in 4-hour urine, patients with symptoms suggestive of lactose intolerance
T1 construct: after its oral administration it is hydrolysed by the intestinal mucosa enzyme; from tissue; host or cells: small-intestinal mucosa (enterocyte brush border) of living human volunteers and patients, in vivo
T1 sequence (P09848 869-1927): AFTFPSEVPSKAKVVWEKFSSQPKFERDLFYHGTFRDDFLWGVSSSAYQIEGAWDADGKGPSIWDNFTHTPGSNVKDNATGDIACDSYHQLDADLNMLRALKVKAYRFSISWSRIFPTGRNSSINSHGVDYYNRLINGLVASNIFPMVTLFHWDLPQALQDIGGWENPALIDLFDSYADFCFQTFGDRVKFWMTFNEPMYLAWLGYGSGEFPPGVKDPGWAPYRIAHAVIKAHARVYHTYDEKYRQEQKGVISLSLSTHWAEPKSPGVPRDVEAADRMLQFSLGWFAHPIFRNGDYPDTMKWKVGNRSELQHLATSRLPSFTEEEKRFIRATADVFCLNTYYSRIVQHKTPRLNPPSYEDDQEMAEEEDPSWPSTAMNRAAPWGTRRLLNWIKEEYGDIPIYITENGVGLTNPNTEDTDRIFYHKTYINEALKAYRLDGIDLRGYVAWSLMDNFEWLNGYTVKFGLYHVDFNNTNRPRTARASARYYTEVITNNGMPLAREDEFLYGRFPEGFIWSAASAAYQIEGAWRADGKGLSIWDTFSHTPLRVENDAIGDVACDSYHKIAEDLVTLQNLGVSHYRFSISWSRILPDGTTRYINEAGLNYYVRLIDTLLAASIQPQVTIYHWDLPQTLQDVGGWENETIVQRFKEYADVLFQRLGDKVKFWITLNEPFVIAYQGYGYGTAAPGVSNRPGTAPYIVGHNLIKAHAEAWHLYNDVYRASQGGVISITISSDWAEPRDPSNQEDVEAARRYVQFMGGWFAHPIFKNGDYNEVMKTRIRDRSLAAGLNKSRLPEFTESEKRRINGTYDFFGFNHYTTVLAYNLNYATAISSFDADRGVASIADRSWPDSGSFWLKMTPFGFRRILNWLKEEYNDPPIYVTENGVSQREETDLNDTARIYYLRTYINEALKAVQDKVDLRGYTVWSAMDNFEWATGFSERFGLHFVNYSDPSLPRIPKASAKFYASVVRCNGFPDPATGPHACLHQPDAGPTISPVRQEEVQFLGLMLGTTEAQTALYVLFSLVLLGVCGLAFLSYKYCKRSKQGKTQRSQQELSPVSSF
Description: (§1) The diagnostic tests to which these patients were subjected were: • Intestinal biopsy: determining intestinal lactase activity therein. • Hydrogen breath test after the oral administration to patients of 50 g of lactose. While this test was being carried out, several capillary-blood glucose test (Glycemia tests) were carried out, calculating the highest increase observed in the blood glucose concentration compared to basal glucose level before starting the test. • 4-GX test in total urine at 0-4 and 0-5 hours, which was orally administered to patients 0.5 g of this product (or 0.45 g in a 4-GX sample including 10 wt % water), collecting the total urine accumulated over 0-4 h and 0-5 h following the administration of 4-GX and determining the amount of excreted xylose in both volumes of urine. • 4-GX test in blood which was orally administered to patients 3 g of this product (or 2.7 g in a 4-GX sample including 10 wt % water) to determine the concentration of plasma xylose in a blood sample 90 minutes after ingestion of the product. The concentration obtained was compared to a basal blood sample extracted before ingestion of 4-GX.
(§2) The 4-GX was orally administered in a single dose dissolved in 100 ml of water.
(§3) From here on, the optimum dose of 0.5 g of 4-GX (or 0.45 g in a 4-GX sample including 10 wt % water) was used in the 4-GX urine test for the diagnosis of intestinal lactase deficiency by the non-invasive method described in the present invention. This dose was dissolved in 100 ml water, and following the test protocol, 2 samples of urine excreted during the 5 hours following the administration of the drug were taken, in two interval groups: at 4 hours following administration of 4-GX and at 5 hours following administration of 4-GX.
(§4) From the data obtained from the various urine tests for intestinal lactase deficiency following oral ingestion of 4-GX described in the present invention, a descriptive statistical analysis was performed of the amount of xylose excreted in the urine up to 4 hours and up to 5 hours following said administration. The same was done with the blodd test for intestinal lactase activity following oral ingestion of 4-GX, where descriptive statistical analysis was performed on the amount of xylose present in the plasma of subjects at 90 minutes following administration of 4-GX. The net increase in the plasma xylose concentration compared to basal values was also calculated.
(§5) To obtain the statistical parameters of lactase determination using the various 4-GX tests described in the present invention and later to compare them with the results obtained from the intestinal biopsy test, hydrogen in exhaled air test and capillary-blood glucose test, the normal limits of the measurement of the total amount of xylose excreted in 4-hour and 5-hour urine and the concentration of blood xylose after 90 minutes following ingestion of 4-GX described in Table 5 were used. The normal limits for the other tests were those used in common clinical practice for the diagnosis of lactose intolerance (Arola, H. (1994) Diagnosis of hypolactasia and lactose malabsorption. Scand. J. Gastroenterol. […] (Suppl), 26-35), which are:
(§6) For the measurement of lactase by intestinal biopsy, the lower normal limit is established at 10 units/g protein, with values less than this being considered positive.

intestinal lactase [2] = biological target: T1, intestinal lactase; test: 4-GX test in 5-hour urine, patients with symptoms suggestive of lactose intolerance
Description: as §1, §2, §3, §4, §5, §6

intestinal lactase [3] = biological target: T1, intestinal lactase; test: 4-GX test in 90-minutes blood, patients with symptoms suggestive of lactose intolerance
Description: as §1, §2
The blood samples were centrifuged to obtain plasma in which the analysis of the amount of xylose present was performed.
as §4, §5, §6

intestinal lactase [4] = biological target: T1, intestinal lactase; test: The three 4-GX tests (4-hour urine, 5-hour urine, blood) taken together; conditions: all 4-GX tests; after correcting biopsy diagnosis
Description: as §1
The 4-GX was orally administered in a single dose dissolved in 100 ml of water. […]

[5] = 0.5 g 4-GX, 0-4 h urine, cut-off 27.58 mg, 205 patients
[6] = 0.5 g 4-GX, 4-hour urine, lactase in intestinal biopsy as gold standard
[7] = 4-hour urine, after correcting biopsy diagnosis
[8] = 4-hour urine, after correction of the biopsy diagnostic result (five discrepancies)
[9] = 4-hour urine, after correction of the biopsy diagnostic result (four discrepancies)
[10] = 4-hour urine, biopsy as gold standard
[11] = 4-hour urine, final criteria of Table 9
[12] = 0.5 g 4-GX, 0-5 h urine, cut-off 37.87 mg, 205 patients
[13] = 0.5 g 4-GX, 5-hour urine, lactase in intestinal biopsy as gold standard
[14] = 5-hour urine, after correcting biopsy diagnosis
[15] = 5-hour urine, after correction of the biopsy diagnostic result (five discrepancies)
[16] = 5-hour urine, after correction of the biopsy diagnostic result (four discrepancies)
[17] = 5-hour urine, biopsy as gold standard
[18] = 5-hour urine, final criteria of Table 9
[19] = 3 g 4-GX, 90-min blood, lactase in intestinal biopsy as gold standard
[20] = 3 g 4-GX, plasma at 90 min, cut-off 0.97 mg/dL, 205 patients
[21] = blood, after correcting biopsy diagnosis
[22] = blood, after correction of the biopsy diagnostic result (five discrepancies)
[23] = blood, after correction of the biopsy diagnostic result (four discrepancies)
[24] = blood, final criteria of Table 9

Structure (SMILES): O=C[C@H](O)[C@@H](O)[C@@H](CO)O[C@@H]1O[C@H](CO)[C@H](O)[C@H](O)[C@H]1O [4-GX, 4-O-β-galactopyranosyl-D-xylose]
- No. Negative (intestinal lactase [1]; [5]): 100
- No. Positive (patients presenting intestinal lactase deficiency) (intestinal lactase [1]; [5]): 105
- Percentage of patients negative (intestinal lactase [1]; [5]): 49%
- Percentage of patients positive (intestinal lactase [1]; [5]): 51.2% and 51%
- Negative predictive value (intestinal lactase [1]; [6]): 90%
- Positive predictive value (intestinal lactase [1]; [6]): 93.3% and 93.33%
- Sensitivity (intestinal lactase [1]; [6]): 90.7% and 90.74%
- Specificity (intestinal lactase [1]; [6]): 92.8% and 92.78%
- sensitivity calculated using the ROC curves (intestinal lactase [1]; 4-hour urine samples): 90.7%
- specificity calculated using the ROC curves (intestinal lactase [1]; 4-hour urine samples): 93.8%
- range of recalculated sensitivity, specificity, positive and negative predictive values (intestinal lactase [1]; 4-hour urine test, after correcting biopsy diagnosis): 96.00-98.10
- false negatives (intestinal lactase [1]; [7]): 3.74%
- negative likelihood ratio (intestinal lactase [1]; [7]): 0.038
- positive likelihood ratio (intestinal lactase [1]; [7]): 47.168
- Negative predictive value (intestinal lactase [1]; [8]): 96.00%
- Positive predictive value (intestinal lactase [1]; [8]): 98.10%
- Sensitivity (intestinal lactase [1]; [8]): 96.26%
- Specificity (intestinal lactase [1]; [8]): 97.96%
- Negative predictive value (intestinal lactase [1]; [9]): 97.00%
- Positive predictive value (intestinal lactase [1]; [9]): 99.05%
- Sensitivity (intestinal lactase [1]; [9]): 97.20%
- Specificity (intestinal lactase [1]; [9]): 98.98%
- area under the ROC curve (intestinal lactase [1]; [10]): 0.9282
- false negatives (intestinal lactase [1]; [10]): 9.3%
- false positives (intestinal lactase [1]; [10]): 7.2%
- concordant positive results, percentage (intestinal lactase [1]; [11]): 96.3%
- final number of concordant positive results (intestinal lactase [1]; [11]): 103
- negative results (concordant), percentage (intestinal lactase [1]; [11]): 98.0%
- number of negative results (concordant) (intestinal lactase [1]; [11]): 96
- No. Negative (intestinal lactase [2]; [12]): 96
- No. Positive (patients presenting intestinal lactase deficiency) (intestinal lactase [2]; [12]): 109
- Percentage of patients negative (intestinal lactase [2]; [12]): 47%
- Percentage of patients positive (intestinal lactase [2]; [12]): 53.2% and 53%
- Negative predictive value (intestinal lactase [2]; [13]): 92.7% and 92.71%
- Positive predictive value (intestinal lactase [2]; [13]): 92.7% and 92.66%
- Sensitivity (intestinal lactase [2]; [13]): 93.5% and 93.52%
- Specificity (intestinal lactase [2]; [13]): 91.8% and 91.75%
- sensitivity calculated using the ROC curves (intestinal lactase [2]; 5-hour urine samples): 93.5%
- specificity calculated using the ROC curves (intestinal lactase [2]; 5-hour urine samples): 91.8%
- range of recalculated sensitivity, specificity, positive and negative predictive values (intestinal lactase [2]; 5-hour urine test, after correcting biopsy diagnosis): 96.94-99.07
- false negatives (intestinal lactase [2]; [14]): 0.93%
- negative likelihood ratio (intestinal lactase [2]; [14]): 0.010
- positive likelihood ratio (intestinal lactase [2]; [14]): 32.361
- Negative predictive value (intestinal lactase [2]; [15]): 98.96%
- Positive predictive value (intestinal lactase [2]; [15]): 97.25%
- Sensitivity (intestinal lactase [2]; [15]): 99.07%
- Specificity (intestinal lactase [2]; [15]): 96.94%
- Negative predictive value (intestinal lactase [2]; [16]): 100.00%
- Positive predictive value (intestinal lactase [2]; [16]): 98.17%
- Sensitivity (intestinal lactase [2]; [16]): 100.00%
- Specificity (intestinal lactase [2]; [16]): 97.96%
- area under the ROC curve (intestinal lactase [2]; [17]): 0.9315
- false negatives (intestinal lactase [2]; [17]): 6.5%
- false positives (intestinal lactase [2]; [17]): 8.2%
- concordant positive results, percentage (intestinal lactase [2]; [18]): 99.1%
- final number of concordant positive results (intestinal lactase [2]; [18]): 106
- negative results (concordant), percentage (intestinal lactase [2]; [18]): 96.9%
- number of negative results (concordant) (intestinal lactase [2]; [18]): 95
- Negative predictive value (intestinal lactase [3]; [19]): 91.8% and 91.75%
- Positive predictive value (intestinal lactase [3]; [19]): 93.4%
- Sensitivity (intestinal lactase [3]; [19]): 92.5% and 92.52%
- Specificity (intestinal lactase [3]; [19]): 92.7% and 92.71%
- No. Negative (intestinal lactase [3]; [20]): 97
- No. Positive (patients presenting intestinal lactase deficiency) (intestinal lactase [3]; [20]): 106
- Percentage of patients negative (intestinal lactase [3]; [20]): 48%
- Percentage of patients positive (intestinal lactase [3]; [20]): 51.7% and 52%
- sensitivity calculated using the ROC curves (intestinal lactase [3]; blood samples): 92.5%
- specificity calculated using the ROC curves (intestinal lactase [3]; blood samples): 92.7%
- range of recalculated sensitivity, specificity, positive and negative predictive values (intestinal lactase [3]; blood test, after correcting biopsy diagnosis): 97.94-98.11
- false negatives (intestinal lactase [3]; [21]): 1.89%
- negative likelihood ratio (intestinal lactase [3]; [21]): 0.019
- positive likelihood ratio (intestinal lactase [3]; [21]): 47.585
- Negative predictive value (intestinal lactase [3]; [22]): 97.94%
- Positive predictive value (intestinal lactase [3]; [22]): 98.11%
- Sensitivity (intestinal lactase [3]; [22]): 98.11%
- Specificity (intestinal lactase [3]; [22]): 97.94%
- Negative predictive value (intestinal lactase [3]; [23]): 98.97%
- Positive predictive value (intestinal lactase [3]; [23]): 99.06%
- Sensitivity (intestinal lactase [3]; [23]): 99.06%
- Specificity (intestinal lactase [3]; [23]): 98.97%
- area under the ROC curve (intestinal lactase [3]; blood, biopsy as gold standard): 0.9268
- false negatives (intestinal lactase [3]; blood, biopsy as gold standard): 7.5%
- false positives (intestinal lactase [3]; blood, biopsy as gold standard): 7.3%
- concordant positive results, percentage (intestinal lactase [3]; [24]): 97.2%
- final number of concordant positive results (intestinal lactase [3]; [24]): 104
- negative results (concordant), percentage (intestinal lactase [3]; [24]): 96.9%
- number of negative results (concordant) (intestinal lactase [3]; [24]): 95
- recalculated values for sensitivity, specificity, positive and negative predictive values (intestinal lactase [4]): above 95%
